Patent publication US6689381B2, “Liposomal benzoquinazoline thymidylate synthase inhibitor formulations” (OSI Pharmaceuticals, Inc., priority 2000, dated 2004)
Like-named read-outs stand apart in the source and are kept apart here.

Assays:
[1] = test system: human colon tumor xenograft model (HCT-8, thymidine kinase (TK)-/-); type: in vivo; conditions: for durable cures: until termination at day 57
From the text: Female Nu/Nu mice (18-24 g, 10-14 weeks old) were obtained from Harlan Sprague Dawley, and housed in microisolator filtration racks and maintained with filtered acidified water and sterile lab chow ad libitum. The human colon tumor xenograft model (HCT-8, thymidine kinase (TK)−/−) was obtained from Dr. Youcef M. Rustum (Roswell Park, Buffalo, N.Y.), and established in-house as a useful model for evaluation of thymidylate synthase inhibitors. Animals were allowed to acclimate to their new environment for 1 week prior to tumor cell implantation. Tumors were established by injecting harvested tumor cells in a single subcutaneous site on the flank of the mice in the axillary region. The tumors were grown until approximately 200+/−50 mm^3 in size. The animals were then sorted according to body weight, grouped four animals/cage, and tattooed on the tail for permanent identification. Groups consisting of 8 tumor-bearing mice each were administered weekly doses of experimental agents by IV bolus injection through the tail vein. Tumor volumes were determined with vernier caliper measurements taken at right angles using the formula, (L×W^2/2) and body weights, were collected twice weekly. Data was plotted as % change in body weight vs. time in days, and % tumor volume increase vs. days.
T=(mean) time in days for treated group to reach cutoff size (2 grams)
C=(mean) time in days for control group to reach cutoff size (2 grams)
WC is the mean tumor weight of control group at time x
Wt is mean tumor weight of treated group at time x
% Regression=100 (Wo−Wi)/Wo; where Wo is the mean tumor weight for treated group at the initiation of treatment and Wi=the mean tumor weight for that group at time some time x after treatment. Many times the time x=24-48 hr after the final dose of therapy.
The log10 cell kill (gross)=[T−C value in days/(3.32)(Td)
Where T−C=time difference in days between Treated and Control tumors to reach a defined end point; and Td is the Tumor Volume Doubling time in days from the best-fit straight line from a log-linear growth plot of the control tumors exponential growth (100-800 mg range). The conversion of the T−C values to the net log10 tumor cell kill are provided by subtraction of the duration of the treatment period from the T−C value and then dividing by 3.32×Td.
The initial experiment, designated NMX-427, tested the effects of GW1843U89 at two different dose levels, 50 and 100 mg/kg/day×17 days. The control group received vehicle alone. […] There were two durable cures, one in each of the dose groups, which remained until termination of the experiment at day 57. The side-effect toxicity as measured by gross body weight loss was minimal in both drug-treated groups, and was greatest in […]. […]

[2] = in vivo; design: species or system Male Sprague-Dawley rats; conditions: male, Sprague-Dawley, rat, iv, 1 mg/kg
Method: GW1843 (M.W. 500.51 g/mol) was obtained from Glaxo Wellcome, Inc. and suspended as an aqueous. Briefly, 616.74 milligrams of GW1843 was suspended in 1.4 mL 2 N NaOH. The solution was mixed until dissolved. To the dissolved solution 30 mL saline was added. The pH was adjusted to 7.15 with 2 N HCl. Finally, the solution was brought to 46.545 mL with saline. The nominal concentration was 13.25 mg/mL. UV absorption in 0.1 N sodium hydroxide at 266 nm, based on an extinction coefficient of 4.34×104 cm^−1 M^−1, determined the concentration. The concentration by UV spectroscopy was 13.97 mg/mL (5.4% difference from expected). The value determined by spectroscopy was utilized for standards in the HPLC assay. NX1843 lot SMC-991-96 (see Table 1A) was used for making quality control solutions.
Male Sprague-Dawley rats weighing 343.91 to 420.19 grams were used for the study. The in-life phase of the study was conducted in Boulder Colo. in accordance with the guidelines for animal welfare and care (NRC Publication Guide for the Care and Use of Laboratory Animals, 1996). IACUC protocol number N98010. Animals were allowed free access to food and water before and during treatment.
Individual animals treated with NX1843 were weighed and dosed at 1 mg/kg body weight by intravenous bolus administration into the tail vein while under isoflurane anesthesia.
Serial EDTA-blood samples (0.5 mL) were obtained at 5, 15, 30 and 45 minutes, and 1, 1.5 and 2 hr post-dosing for the GW1843 group while animals were under isoflurane anesthesia. For the NX1843 group, serial EDTA-blood samples (0.5 mL) were obtained at 10, 30 and 90 minutes and 4, 8, 24, 32, 48, 72 and 96 hours post-dosing. The EDTA-blood samples were immediately processed for plasma and plasma samples were stored at −20° C. until analysis.
An isocratic reverse phase high performance liquid chromatographic (HPLC) procedure was used for rapid determination of the total GW1843 concentration in rat EDTA-plasma. Following methanol precipitation of plasma protein (2 parts methanol to 1 part plasma), the protein was removed by centrifugation at 14,000×g for 10 minutes. A ZORBAX Eclipse™ XBD-C18 column (3 mm×15 cm) configured with a guard column was used to separate the soluble GW1843 (injection volume 20 μL). The HPLC buffer consisted of 80% 100-mM ammonium acetate pH 5.3, and 20% acetonitrile and the flow rate was 0.4 mL/min. The total run time was seven minutes and GW1843 was detected and quantified by ultraviolet absorbance at 264 nm. The standard curve consisted of free GW1843 spiked rat EDTA-plasma while the quality control samples consisted of NX1843 spiked rat EDTA-plasma. The range of the standard curve was 0.1 to 30.0 μg/mL.
The pharmacokinetic parameters for total GW1843 after i.v administration of GW1843 or liposome encapsulated GW1843 were assessed by a non-compartmental method using WinNonlin (version 1.5). The log/linear trapazoidal rule was used. For non-compartmental analysis, all three time points were utilized for the estimation the elimination phase for free GW1843 while the last 5 time points were utilized to estimate the elimination half-life of NX1843. Cmax values were estimated by extrapolation to zero time. Pharmacokinetic parameters were determined for each animal in the study. From values obtained in each group the mean and SD of each parameter was determined. The parameters estimated included:
The observed clearance (CL) of GW1843 following administration was calculated as: […]
Comparison of treatment groups was performed by unpaired t-tests of data obtained in the same experiment. A p-value of <0.05 was considered significant. Tests were performed using GraphPad Instat version 1.0 (GraphPad Software).

[3] = Concentration of GW1843 in Plasma

With Cc1nc2ccc3ccc(CNc4ccc5c(c4)CN(C(CCC(=O)O)C(=O)O)C5=O)cc3c2c(=O)[nH]1 (stereo not shown) [GW1843] the log cell kill ([1]; 50 mg/kg/day×17 days) was 3.0, the durable cures ([1]; 50 mg/kg/day×17 days) was “one” and the log cell kill ([1]; 100 mg/kg/day×17 days) was 3.3. For the same compound, the durable cures ([1]; 100 mg/kg/day×17 days) was “one”, the “volume of distribution of free drug relative to the liposome formulation” value [2] was about 14.6 fold and the AUC(0-inf) ([2]; AUC(0-inf)) was 270 ± 28 ng·h/mL. It also gave an AUC(0-t) ([2]; AUC(0-last)) of 250 ng·h/mL, a clearance ([2]; CL) of 61 mL/min/kg and a Cmax ([2]; Cmax) of 1620 to 1990 ng/mL. For the same compound, the concentration at 0.083 hr [2, 3] was 991 ng/mL, the concentration at 0.25 hr [2, 3] was 214 ng/mL and the concentration at 0.5 hr [2, 3] was 117 ng/mL. The MRT inf ([2]; MRT(0-inf)) was 10.8 min, the half-life ([2]; T½ (terminal half-life)) was 8.52 ± 0.42 min and the Vd ([2]; Vss) was 0.654 L/kg. The clearance ([2]; plasma clearance) was 62.3 mL/min.
